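Each compound was tested at five concentrations against cells in 96-well plates for 48 hours. Definition used: TGI = concentration required for complete inhibition of growth.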
Experiments:
Test in all cases: NCI-60 cell line screen, 48 h
[1] = tested on: DMS 114 small cell lung
[2] = tested on: DMS 273 small cell lung
[3] = tested on: LXFL 529 NSCLC
[4] = tested on: M19-MEL melanoma
[5] = tested on: SNB-78 CNS
[6] = tested on: XF 498 CNS
[7] = tested on: HOP-18 NSCLC
[8] = tested on: RXF-631 renal

| Structure (SMILES) | TGI [1] | TGI [2] | TGI [3] | TGI [4] | TGI [5] | TGI [6] | TGI [7] | TGI [8] |
| --- | --- | --- | --- | --- | --- | --- | --- | --- |
| COc1ccc(C2=NN(c3ccccc3)C[N+](c3ccc(OC)cc3)=N2)cc1 | 64 µM | 66.1 µM | 45.4 µM | > 100 µM | 80.5 µM | 39.1 µM |  |  |
| CC1(c2ccc[n+](Cc3ccccc3)c2)OCCO1 |  | > 100 µM | > 100 µM | > 100 µM | > 100 µM |  | > 100 µM |  |
| COc1ccc(C2N(NC(=O)c3ccncc3)C(=O)CS2(=O)=O)cc1F (configuration not stated) | > 100 µM | > 100 µM | > 100 µM |  | > 100 µM | > 100 µM | > 100 µM | > 100 µM |
| CCOC(=O)Cc1cc(OC)c(OC)cc1/C(Cl)=C(\C=O)c1ccc(OC)c(OC)c1 | 48.8 µM | 44.3 µM |  | 55.6 µM | 81.1 µM | 46.2 µM | 75.4 µM | 49 µM |
| COc1cc2c(cc1OC)C(Cl)C(c1ccc(Cl)c(Cl)c1)=C2Cl (configuration not stated) | 15.9 µM | 14.7 µM | 17.2 µM | 32.2 µM | 33.7 µM |  | 37 µM |  |
| COc1cc(C(C)c2cc3c(cc2OCCO)OCO3)cc(OC)c1OC (configuration not stated) | 3.77 µM | > 100 µM | > 100 µM | > 100 µM | > 100 µM | 5.33 µM | > 100 µM |  |
| CN(C(=O)c1ccco1)C(=S)N1CCN(c2ccccc2)CC1 | > 100 µM | > 100 µM | > 100 µM | > 100 µM |  | > 100 µM | > 100 µM |  |
| COc1ccc(C(=O)Cc2ccc(Br)cc2)cc1OC | > 100 µM | > 100 µM | > 100 µM | > 100 µM | > 100 µM | 71 µM | > 100 µM | > 100 µM |

Source: PubChem BioAssay (NCI)
